What was measured:
ventral prostate weight [1] = assay: Duration of androgenic activity after subcutaneous injection, ventral prostate weight over weeks in orchidectomized immature rats; format: in vivo, Sprague-Dawley rats; conditions: for ventral prostate weight over time after single subcutaneous injection (in words): 0.6 mg in 0.2 ml aqueous vehicle; for AUC of ventral prostate weight, times greater than for testosterone enanthate in oily carrier: active in aqueous vehicle versus testosterone enanthate in sesame oil/oily carrier, single subcutaneous 0.6 mg
Experimental: Immature (about 21-day-old) Sprague-Dawley rats were orchidectomized under anesthesia, and randomly assignee to groups of ten animals for each dose level of the active undergoing testing. Each active was administered by subcutaneous injection each day for seven days beginning on the date of the orchidectomy. The animals were sacrificed 24 hours after the last dose, and the ventral prostate and seminal vesicles were excised, cleaned of fat and connective tissue, blotted on moist filter paper and weighed to the nearest 0.1 mg. Regression analysis was performed by conventional methods using a PROPHET data management system. Ventral prostate weight was used as the endpoint because it is the sensitive organ to androgenic stimulation.
Except for testosterone enanthate, each active was formulated in two different carriers: (1) an aqueous suspension and (2) in sesame oil. Testosterone enanthate was formulated using the sesame oil carrier only, because it exists as a liquid at room temperature and could not therefore be formulated as an aqueous suspension.
(§1) The carrier used to provide the aqueous suspension was formulated as follows: 1 g benzyl alcohol, 0.5 g sodium carboxylethyl cellulose 50, 0.376 g disodium hydrogen phosphate dihydrate, 1.495 g sodium dihydrogen phosphate dihydrate, with water for injection (WFI) being added to bring volume of the carrier up to 100 ml.
Each formulation was prepared at a concentration of 0.6 mg/0.2 ml.
Immature (about 21-day-old) Sprague-Dawley rats were orchidectomized under anesthesia, and randomly assignee to groups of 40 or more. Animals received a single subcutaneous injection of 0.6 mg of each ester in 0.2 ml of an aqueous suspending carrier and/or oily carrier (10% ethanol/90% sesame oil or ethyl oleate) on the date of the orchidectomy. In cases where the ester was not solid at room temperature, 10% ethanol/sesame oil or ethyl oleate was used as the carrier. In this example, the carrier used to provide the aqueous suspension was formulated as follows: 1 g benzyl alcohol, 0.5 g sodium carboxylethyl cellulose 50, 0.376 g disodium hydrogen phosphate dihydrate, 1.495 g sodium dihydrogen phosphate dihydrate, with water for injection (WFI) being added to bring volume of the carrier up to 100 ml.
Five animals from each group were sacrificed at weekly or biweekly intervals, and the ventral prostate and seminal vesicles were excised, cleaned of fat and connective tissue, blotted on moist filter paper and weighed to the nearest 0.1 mg.
Ventral prostate weight was used as the endpoint because it is the sensitive organ to androgenic stimulation. Regression analysis was performed by conventional methods using the PROPHET data management system previously identified.
Immature (about 21-day-old) Sprague-Dawley rats were orchidectomized under anesthesia, and randomly assignee to groups of 40 or more. Animals received a single subcutaneous injection of 0.6 mg of the undecanoate in 0.2 ml of an aqueous suspending carrier and/or oily carrier (10% ethanol/90% sesame oil containing 5 mg/ml chlorobutanol as a preservative, or ethyloleate) on the date of the orchidectomy. The enanthate ester was formulated using the 10% ethanol/sesame oil or ethyloleate carrier as a first standard, with the 10% ethanol/sesame oil carrier used as a second standard.
as §1, with “In this example, the” for “The”
Immature (about 21-day-old) Sprague-Dawley rats were orchidectomized under anesthesia, and randomly assignee to groups of 40 or more. […] The enanthate ester was formulated using the 10% ethanol/sesame oil or ethyloleate carrier as a first standard, with the 10% ethanol/sesame oil carrier used as a second standard.

ventral prostate weight [2] = assay: Subcutaneous androgenic potency, ventral prostate weight assay in orchidectomized immature rats (injection daily for seven days); format: in vivo, Sprague-Dawley rats
Experimental: (§2) Immature (about 21-day-old) Sprague-Dawley rats were orchidectomized under anesthesia, and randomly assignee to groups of ten animals for each dose level of the active undergoing testing. Each active was dissolved in 10% ethanol/sesame oil and administered by gavage (oral) or subcutaneous injection each day for seven days beginning on the date of the orchidectomy. The animals were sacrificed 24 hours after the last dose, and the ventral prostate and seminal vesicles were excised, cleaned of fat and connective tissue, blotted on moist filter paper and weighed to the nearest 0.1 mg. Regression analysis was performed by conventional methods using a PROPHET data management system. Ventral prostate weight was used as the endpoint because it is the sensitive organ to androgenic stimulation.
as §2, with “by” for “by gavage (oral) or”, “mg. See, e.g., Hershberger, L. et al, Myotrophic Activity of 19-nortestosterone And Other Steroids Determined By Modified Levator And Muscle Method, Proc. Soc. Exptl. Bid. Med. 83 175–180 (1953).” for “mg.”, “system. See, e.g., Bliss, C., The Statistics of Bioassay (Academic Press, New York, 1952); Hollister, C., Nucleic Acids Res. 16 1873–75 (1988).” for “system.”
Immature (about 22-day-old) Sprague-Dawley male rats were orchidectomized under anesthesia, and randomly assignee to groups of ten animals for each dose level of the active undergoing testing. […] Illumination was controlled for 14 hour periods of light and 10 hours of darkness.
Each active was administered by subcutaneous injection of 0.6 mg of test material in aqueous suspending vehicle (ASV) and/or an oily vehicle (10% ethanol/sesame oil) on the day of surgery. Testosterone enanthate in sesame oil was used as a standard. The ventral prostate and seminal vesicles were excised, cleaned of fat and connective tissue, blotted on moist filter paper and weighed to the nearest 0.1 mg. Regression analysis was performed by conventional methods using a PROPHET data management system. Ventral prostate weight was used as the endpoint because it is the sensitive organ to androgenic stimulation.

SMILES: CCCC[C@H]1CC[C@H](C(=O)O[C@H]2CC[C@H]3[C@H]4[C@H]([C@@H](C)C[C@]23C)[C@H]2CCC(=O)C=C2C[C@H]4C)CC1 (relative stereo) [Compound I, 7α,11β-Dimethyl-17β-hydroxy-4-estren-3-one 17β-trans-4-n-butylcyclohexane carboxylate]
- ventral prostate weight over time after single subcutaneous injection (in words) (ventral prostate weight [1]): most dramatic increase and maintenance of ventral prostate weight
- activity in potency and duration after subcutaneous injection (in words), FIG. 5 (ventral prostate weight [1]; 0.6 mg/0.2 ml, aqueous suspension or sesame oil, ventral prostate weight): far exceeds the activity exhibited by the comparative esters
- AUC of ventral prostate weight, times greater than for testosterone enanthate in oily carrier (ventral prostate weight [1]): about 3 times
- AUC of ventral prostate weight over the 10-week period, rank among bucyclate esters (ventral prostate weight [1]; single subcutaneous 0.6 mg suspended in aqueous carrier, FIG. 9): greatest AUC
- activity after subcutaneous administration (in words) (ventral prostate weight [2]; subcutaneous injection daily for 7 days in 10% ethanol/sesame oil, ventral prostate weight): relatively weak activity
- Androgenic Potency (activity of corresponding alcohol) (ventral prostate weight [2]; ventral prostate weight assay following subcutaneous administration, alcohol of G = 1.0 (assigned), value is for the free alcohol of the listed ester): 19.3

SMILES: CCCCCCCCCCC(=O)O[C@H]1CC[C@H]2[C@H]3[C@H]([C@@H](C)C[C@]12C)[C@H]1CCC(=O)C=C1C[C@H]3C [Compound II, 7α,11β-dimethyl-17β-hydroxyestr-4-en-3-one 17-undecanoate]
- ventral prostate weight over time after single subcutaneous injection (in words) (ventral prostate weight [1]; listed as CDB-4521): most dramatic increases and maintenance of ventral prostate weight
- AUC of ventral prostate weight, times greater than for testosterone enanthate in oily carrier (ventral prostate weight [1]): about 3 times
- area under the curve (AUC, trapezoidal rule) of ventral prostate weight (ventral prostate weight [1]; single subcutaneous 0.6 mg in aqueous vehicle, 10 week period, FIG. 15): 1817 mg-weeks
- subcutaneous androgenic activity relative to testosterone (ventral prostate weight [2]; subcutaneous injection daily for 7 days in 10% ethanol/sesame oil (oily carrier), ventral prostate weight): 0.52 times

From patent US7196074B2, “Methods of making, using and pharmaceutical formulations comprising 7α, 11β-dimethyl-17β-hydroxyestra-4, 14-dien-3-one and 17 esters thereof” (The United States of America as represented by the …, priority 2000, dated 2007)
